The values below come from patent US20150299188A1, “HETEROCYCLIC COMPOUND” (priority 2012, published 2015).

The assay concerns FLAP (5-lipoxygenase activating protein). Description: In vitro binding test: displacement of [3H]-7-chloro-3-(5-((3-fluoropyridin-2-yl)methoxy)-2-methylphenyl)-3,4-dihydroquinazolin-2(1H)-one from Sf9 microsome fractions. Also noted: species or system human and mouse. Conditions: Sf9 microsome fractions expressing FLAP; 100% = radioligand binding with 10 μM sodium 3-(3-(tert-butylsulfanyl)-1-(4-chlorobenzyl)-5-isopropyl-1H-indol-2-yl)-2,2-dimethylpropanoate, 0% = DMSO; test compound concentration not given. An outline of the steps: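 Sf9 microsomes expressing human or mouse FLAP (2 μg/mL) preincubated with compound 10 min at room temperature, then 120 nM tritiated quinazolinone ligand added for 60 min; buffer 100 mM Tris-HCl pH 7.5 with NaCl, EDTA, DTT, glycerol, Tween20. Bound ligand filtered and counted by scintillation; 10 μM indole propanoate defines 100% inhibition, DMSO 0%.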
(In general: Loss of bound radioactivity is the signal in a displacement assay; it reports binding, not function.)

For the compound `Cc1cc2c(cc1N1Cc3c(cc(N4CCOC4=O)nc3C3CC3)NC1=O)OC(c1ncccc1F)CC2` (stereo not drawn) [Example 138, 5-cyclopropyl-3-(2-(3-fluoropyridin-2-yl)-6-methyl-3,4-dihydro-2H-chromen-7-yl)-7-(2-oxo-1,3-oxazolidin-3-yl)-3,4-dihydropyrido[4,3-d]pyrimidin-2(1H)-one], the “inhibitory rate (%)” value worked out at 109%.
The same measure for `O=C1Nc2cc(-c3noc(=S)[nH]3)nc(C3CC3)c2CN1c1cc2c(cc1Cl)CCC(c1ncccc1F)O2` (stereo not drawn) [Example 118, 3-(6-chloro-2-(3-fluoropyridin-2-yl)-3,4-dihydro-2H-chromen-7-yl)-5-cyclopropyl-7-(5-thioxo-4,5-dihydro-1,2,4-oxadiazol-3-yl)-3,4-dihydropyrido[4,3-d]pyrimidin-2(1H)-one]: 104%; for `COc1cncc2c1CN(c1cc3c(cc1C)CCC(c1ncccc1F)O3)C(=O)N2` (stereo not drawn) [Example 23, 3-(2-(3-fluoropyridin-2-yl)-6-methyl-3,4-dihydro-2H-chromen-7-yl)-5-methoxy-3,4-dihydropyrido[3,4-d]pyrimidin-2(1H)-one]: 92%.
Take `O=c1[nH]c2ccccc2c(=O)n1-c1ccc2c(c1)OC(c1c(F)cccc1F)CC2` (stereo not drawn) [Example 326, 3-(2-(2,6-difluorophenyl)-3,4-dihydro-2H-chromen-7-yl)quinazoline-2,4(1H,3H)-dione]: the “inhibitory rate (%)” value is given as 95%.
For `Cc1ccc(OCc2ncccc2F)cc1N1Cc2ccncc2NC1=O` [Example 259, 3-(5-((3-fluoropyridin-2-yl)methoxy)-2-methylphenyl)-3,4-dihydropyrido[3,4-d]pyrimidin-2(1H)-one] the value was 92%; for `Cc1ccc(OCc2ncccc2F)cc1N1Cc2c(Cl)cc(C(=O)NC3CC3)cc2NC1=O` [Example 299, 5-chloro-N-cyclopropyl-3-(5-((3-fluoropyridin-2-yl)methoxy)-2-methylphenyl)-2-oxo-1,2,3,4-tetrahydroquinazoline-7-carboxamide], 113%; for `COc1cccc2c1CN(c1cc(OCc3ncccc3F)ccc1C)C(=O)N2` [Example 308, 3-(5-((3-fluoropyridin-2-yl)methoxy)-2-methylphenyl)-5-methoxy-3,4-dihydroquinazolin-2(1H)-one], 85%.
`Cc1cc2c(cc1N1Cc3c(ccnc3C(C)(C)O)NC1=O)OC(c1ncccc1F)CC2` (stereo not drawn) [Example 33, 3-(2-(3-fluoropyridin-2-yl)-6-methyl-3,4-dihydro-2H-chromen-7-yl)-5-(2-hydroxypropan-2-yl)-3,4-dihydropyrido[4,3-d]pyrimidin-2(1H)-one]: the “inhibitory rate (%)” value was found to be 106%.
The same measure for `CCCN1CCN(Cc2ccc(OCc3ncccc3F)cc2N2Cc3ccccc3NC2=O)CC1` [Example 314, 3-(5-((3-fluoropyridin-2-yl)methoxy)-2-((4-propylpiperazin-1-yl)methyl)phenyl)-3,4-dihydroquinazolin-2(1H)-one]: 58%; for `CCc1ccc(OCc2c(F)cccc2F)cc1N1Cc2ccc(C(C)(C)O)cc2NC1=O` [Example 178, 3-(5-((2,6-difluorobenzyl)oxy)-2-ethylphenyl)-7-(2-hydroxypropan-2-yl)-3,4-dihydroquinazolin-2(1H)-one]: 109%.
In the case of `COC(=O)c1ccc2c(c1)NC(=O)N(c1cc(OCc3nc(C)cs3)ccc1C)C2` [Example 249, methyl 3-(2-methyl-5-((4-methyl-1,3-thiazol-2-yl)methoxy)phenyl)-2-oxo-1,2,3,4-tetrahydroquinazoline-7-carboxylate], the “inhibitory rate (%)” value worked out at 90%.
`Cc1cc2c(cc1N1Cc3c(Cl)cncc3NC1=O)OC(c1ncccc1F)CC2` (stereo not drawn) [Example 22, 5-chloro-3-(2-(3-fluoropyridin-2-yl)-6-methyl-3,4-dihydro-2H-chromen-7-yl)-3,4-dihydropyrido[3,4-d]pyrimidin-2(1H)-one]: the “inhibitory rate (%)” value is 109%.
Regarding `Cc1cc2c(cc1N1Cc3c(ccnc3C(F)(F)F)NC1=O)O[C@H](c1ncccc1F)CC2` [Example 6, 3-((2S)-2-(3-fluoropyridin-2-yl)-6-methyl-3,4-dihydro-2H-chromen-7-yl)-5-(trifluoromethyl)-3,4-dihydropyrido[4,3-d]pyrimidin-2(1H)-one], the “inhibitory rate (%)” value is reported as 98%.
For `Cc1cnn(-c2cc3c(c(C4CC4)n2)CN(c2cc4c(cc2C)CCC(c2ncccc2F)O4)C(=O)N3)c1` (stereo not drawn) [Example 133, 5-cyclopropyl-3-(2-(3-fluoropyridin-2-yl)-6-methyl-3,4-dihydro-2H-chromen-7-yl)-7-(4-methyl-1H-pyrazol-1-yl)-3,4-dihydropyrido[4,3-d]pyrimidin-2(1H)-one] the value was 100%.
Take `O=C1Nc2cc(Br)ccc2CN1c1cc(OCc2ncccc2F)ccc1C(F)(F)F` [Example 301, 7-bromo-3-(5-((3-fluoropyridin-2-yl)methoxy)-2-(trifluoromethyl)phenyl)-3,4-dihydroquinazolin-2(1H)-one]: the “inhibitory rate (%)” value turned out to be 104%.
Consider `O=C1Nc2ccnc(C3CC3)c2CN1c1cc2c(cc1Cl)CCC(c1ncccc1F)O2` (stereo not drawn) [Example 39, 3-(6-chloro-2-(3-fluoropyridin-2-yl)-3,4-dihydro-2H-chromen-7-yl)-5-cyclopropyl-3,4-dihydropyrido[4,3-d]pyrimidin-2(1H)-one], for which the “inhibitory rate (%)” value was determined as 94%.
For `Cc1cc2c(cc1N1Cc3c(cc(-n4cccn4)nc3C3CC3)NC1=O)OC(c1ncccc1F)CC2` (stereo not drawn) [Example 132, 5-cyclopropyl-3-(2-(3-fluoropyridin-2-yl)-6-methyl-3,4-dihydro-2H-chromen-7-yl)-7-(1H-pyrazol-1-yl)-3,4-dihydropyrido[4,3-d]pyrimidin-2(1H)-one] the value was 104%.
For `O=C1Nc2ccnc(N3CCOCC3)c2CN1c1cc2c(cc1Cl)CCC(c1ncccc1F)O2` (stereo not drawn) [Example 58, 3-(6-chloro-2-(3-fluoropyridin-2-yl)-3,4-dihydro-2H-chromen-7-yl)-5-(morpholin-4-yl)-3,4-dihydropyrido[4,3-d]pyrimidin-2(1H)-one], the “inhibitory rate (%)” value came to 117%.
For `Cc1ccc(OCc2ncccc2F)cc1-n1c(=O)[nH]c2cc(OCC3CC3)ccc2c1=O` [Example 349, 7-(cyclopropylmethoxy)-3-(5-((3-fluoropyridin-2-yl)methoxy)-2-methylphenyl)quinazoline-2,4(1H,3H)-dione] the value was 105%.
For `Cc1ccc(OCc2ncccc2F)cc1N1Cc2c(Cl)cccc2N(C)C1=O` [Example 269, 5-chloro-3-(5-((3-fluoropyridin-2-yl)methoxy)-2-methylphenyl)-1-methyl-3,4-dihydroquinazolin-2(1H)-one] the value was 111%; for `CC(C)(O)CNC(=O)c1ccc(OCc2c(F)cccc2F)cc1N1Cc2ccccc2NC1=O` [Example 190, 4-((2,6-difluorobenzyl)oxy)-N-(2-hydroxy-2-methylpropyl)-2-(2-oxo-1,4-dihydroquinazolin-3(2H)-yl)benzamide], 55%.
`CCCCOC(=O)CCc1ccc(OCc2ncccc2F)cc1N1Cc2ccccc2NC1=O` [Example 228, butyl 3-(4-((3-fluoropyridin-2-yl)methoxy)-2-(2-oxo-1,4-dihydroquinazolin-3(2H)-yl)phenyl)propanoate]: the “inhibitory rate (%)” value is 95%.
For `O=C1Nc2cc(CO)nc(C3CC3)c2CN1c1cc2c(cc1Cl)CCC(c1ncccc1F)O2` (stereo not drawn) [Example 73, 3-(6-chloro-2-(3-fluoropyridin-2-yl)-3,4-dihydro-2H-chromen-7-yl)-5-cyclopropyl-7-(hydroxymethyl)-3,4-dihydropyrido[4,3-d]pyrimidin-2(1H)-one] the value was 109%; for `Cc1cc2c(cc1N1Cc3c(cc(-n4cc(C(F)(F)F)cn4)nc3C3CC3)NC1=O)OC(c1ncccc1F)CC2` (stereo not drawn) [Example 154, 5-cyclopropyl-3-(2-(3-fluoropyridin-2-yl)-6-methyl-3,4-dihydro-2H-chromen-7-yl)-7-(4-(trifluoromethyl)-1H-pyrazol-1-yl)-3,4-dihydropyrido[4,3-d]pyrimidin-2(1H)-one], 100%.
The same measure for `COC(=O)c1ccc(OCc2c(F)cccc2F)cc1N1Cc2ccccc2NC1=O` [Example 188, methyl 4-((2,6-difluorobenzyl)oxy)-2-(2-oxo-1,4-dihydroquinazolin-3(2H)-yl)benzoate]: 83%; for `COCCOc1cccc2c(=O)n(-c3cc(OCc4ncccc4F)ccc3C)c(=O)[nH]c12` [Example 354, 3-(5-((3-fluoropyridin-2-yl)methoxy)-2-methylphenyl)-8-(2-methoxyethoxy)quinazoline-2,4(1H,3H)-dione]: 104%.
The same measure for `COc1nccc2c1CN(c1cc3c(cc1C)CCC(c1ncccc1F)O3)C(=O)N2` (stereo not drawn) [Example 21, 3-(2-(3-fluoropyridin-2-yl)-6-methyl-3,4-dihydro-2H-chromen-7-yl)-5-methoxy-3,4-dihydropyrido[4,3-d]pyrimidin-2 (1H)-one]: 103%; for `O=C1Nc2ccccc2CN1c1cc(OCc2ncccc2F)ccc1F` [Example 300, 3-(2-fluoro-5-((3-fluoropyridin-2-yl)methoxy)phenyl)-3,4-dihydroquinazolin-2(1H)-one]: 105%; for `O=C1Nc2cc(CO)ccc2CN1c1cc(OCc2c(F)cccc2F)ccc1Cc1ccccn1` [Example 317, 3-(5-((2,6-difluorobenzyl)oxy)-2-(pyridin-2-ylmethyl)phenyl)-7-(hydroxymethyl)-3,4-dihydroquinazolin-2(1H)-one]: 54%.
In the case of `Cc1cc2c(cc1N1Cc3c(Cl)cnc(-c4c(C)noc4C)c3NC1=O)OC(c1ncccc1F)CC2` (stereo not drawn) [Example 10, 5-chloro-8-(3,5-dimethyl-1,2-oxazol-4-yl)-3-(2-(3-fluoropyridin-2-yl)-6-methyl-3,4-dihydro-2H-chromen-7-yl)-3,4-dihydropyrido[3,4-d]pyrimidin-2(1H)-one], the “inhibitory rate (%)” value is 94%.
